Test results taken from PubChem BioAssay (NCI).
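Tested at 5 concentrations; 48 h exposure; 96-well plates; endpoints linearly interpolated, else capped at highest concentration. GI50 = concentration required for 50% inhibition of growth. At the TGI there is no net growth.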

What was measured:
Assay in all cases: growth of human tumour cells (NCI), 48 h
NCI-H460 lung = tested on: NCI-H460 lung
A498 renal = tested on: A498 renal
HL-60(TB) leukemia = tested on: HL-60(TB) leukemia
SK-OV-3 ovarian = tested on: SK-OV-3 ovarian
SF-268 CNS = tested on: SF-268 CNS
SK-MEL-2 melanoma = tested on: SK-MEL-2 melanoma
HCC-2998 colon = tested on: HCC-2998 colon
SK-MEL-28 melanoma = tested on: SK-MEL-28 melanoma
LOX IMVI melanoma = tested on: LOX IMVI melanoma
NCI-H522 lung = tested on: NCI-H522 lung

Row | SMILES | GI50 (NCI-H460 lung) [µM] | TGI (NCI-H460 lung) [µM] | GI50 (A498 renal) [µM] | TGI (A498 renal) [µM] | GI50 (HL-60(TB) leukemia) [µM] | TGI (HL-60(TB) leukemia) [µM] | GI50 (SK-OV-3 ovarian) [µM] | TGI (SK-OV-3 ovarian) [µM] | GI50 (SF-268 CNS) [µM] | TGI (SF-268 CNS) [µM] | GI50 (SK-MEL-2 melanoma) [µM] | TGI (SK-MEL-2 melanoma) [µM] | GI50 (HCC-2998 colon) [µM] | TGI (HCC-2998 colon) [µM] | GI50 (SK-MEL-28 melanoma) [µM] | TGI (SK-MEL-28 melanoma) [µM] | GI50 (LOX IMVI melanoma) [µM] | TGI (LOX IMVI melanoma) [µM] | GI50 (NCI-H522 lung) [µM] | TGI (NCI-H522 lung) [µM]
1 | O=C(CN1CCN(c2ccccn2)CC1)Nc1ccc(Cl)cc1C(=O)c1ccccc1Cl | 93.6 | > 100 | 24.5 | > 100 | 5.51 | > 100 | > 100 | > 100 | > 100 | > 100 | > 100 | > 100 | > 100 | > 100 | > 100 | > 100 | 41.6 | > 100 | 16.6 | > 100
2 | NS(=O)(=O)c1ccc(N=Nc2c(=O)[nH]c3ccc4[nH]cccc4c23)cc1 | 0.792 | > 25 | 0.671 | 1.45 | 0.557 | 1.53 | 1.25 | > 25 | 0.33 | > 5.99 | 0.182 | 0.696 | 0.398 | 2 | 0.518 | 1.64 | 0.304 | > 25 | 0.197 | 0.818
3 | O=C(Nc1ccc(N2CCNCC2)cn1)c1[nH]ncc1Nc1ncnc2sc3c(c12)CCC3 | 1.58 | 3.48 | 5.06 | 24.6 | 6.28 | 29.8 | 16.3 | 34.8 |  |  | 13.6 | 35.1 | 14.1 | 36.2 |  |  |  |  | 1.92 | 4.82
4 | COc1cc[nH]c1/C=C1\C(=O)Nc2ccc([N+](=O)[O-])c(N3CC[C@@H](O)C3)c21 | 0.119 | 2.92 | 0.182 | 0.815 | 0.0831 | 0.213 | 0.631 | 8.16 | 0.255 | 1.29 | 0.229 | 0.688 | 0.544 | 2 | 0.277 | 1.2 | 0.0923 | 1.41 | 0.393 | 1.23
5 | Cc1ccc(SSCCCCS(=O)O)cc1 |  | > 100 |  | 54.6 |  | 20.4 |  | 71 |  | 46.9 |  | 68.5 |  | 66.3 |  | 44.1 |  | 76.1 |  | 27.6
6 | COC(=O)[C@]1(C)CC[C@]2(C)CC[C@]3(C)C(=CC(=O)[C@@H]4[C@@]5(C)CCC(=O)NC(C)(C)[C@@H]5CC[C@]43C)[C@@H]2C1 | 20.1 | 58.8 | 21.4 | 46.4 | 16.2 | 41.6 | 24 | > 100 | 28.2 | > 100 | 21.6 | 95.3 | 18.4 | 38.7 | 18.5 | 36.5 | 16.6 | 32.3 | 18.2 | 69.3
7 | NC(N)=N/N=C/c1ccc(Br)cc1 | 3.29 | 11.7 | 3.57 | 13.7 | 2.5 | > 100 | 6.75 | 30.5 | 12.4 | 38.2 | 12 | 26.4 | 1.14 | 3.16 | 5.61 | 18.8 | 6.45 | 20.8 | 4.39 | 17.7
